# In publication PMC8349443 (Journal of the Indian Chemical Society, 2021):
# Tests used:
# SARS-CoV-2 virus = experiment: Antiviral potentiality against SARS-CoV-2; format: cell-based; conditions: isolate of SARS-CoV-2
# [1] = test system: plasma C-Reactive Protein (CRP) and procalcitonin; conditions: ref [7], [8], [9]; cited from earlier work
smiles,measurement,setting,value
"N[C@@H](CC(=O)N1CCn2c(nnc2C(F)(F)F)C1)Cc1cc(F)c(F)cc1F [SIT, Sitagliptin]",antiviral activity against SARS-CoV-2 in words,SARS-CoV-2 virus,have antiviral activity against an isolate of SARS-CoV-2
same,possible immuno-modulatory effect: plasma CRP and procalcitonin,[1],plasma C-Reactive Protein (CRP) and procalcitonin reduction
